According to ChEMBL document CHEMBL3045989, “The Veratrum alkaloids jervine, veratramine, and their analogues as prostate cancer migration and proliferation inhibitors: biological evaluation and pharmacophore modeling” (Med Chem Res, 2013):
Activity calls are given as the source filed them. No cut-off for these calls is given here.

Tests used:
Type in all cases: functional, cell-based
[1] = tested on: PC-3; experiment: Antimigratory activity against Homo sapiens (human) PC3 cells at 50 uM after 24 hr by wound-healing assay
[2] = tested on: PC-3; experiment: Antiproliferative activity against Homo sapiens (human) PC3 cells at 50 uM after 72 hr by MTT assay
[3] = tested on: PC-3; experiment: Antimigratory activity against Homo sapiens (human) PC3 cells at 200 uM after 24 hr by wound-healing assay
[4] = tested on: PC-3; experiment: Antiproliferative activity against Homo sapiens (human) PC3 cells at 1 uM after 72 hr by MTT assay
[5] = tested on: PC-3; experiment: Antiproliferative activity against Homo sapiens (human) PC3 cells at 10 uM after 72 hr by MTT assay

Row | Compound | Activity [1] | Activity [2] | Activity [3] | Activity [4] | Activity [5]
1 | CC1=C2C(=O)[C@H]3[C@@H](CC[C@H]4C[C@@H](O)C[C@H](O)[C@@]43C)[C@@H]2CC[C@]12O[C@@H]1C[C@H](C)CN[C@H]1[C@H]2C | Active | inactive |  |  | 
2 | CC1=C2C(=O)[C@H]3[C@@H](CC=C4C[C@@H](O)CC[C@@]43C)[C@@H]2CC[C@]12O[C@@H]1C[C@H](C)CN[C@H]1[C@H]2C | Active | Active |  |  | 
3 | O=C1NC(=O)/C(=C/c2ccc(O)cc2)N1 |  |  | Active |  | 
4 | Cc1c([C@H](C)[C@@H]2NC[C@@H](C)C[C@H]2O)ccc2c1C[C@H]1[C@H]2CC[C@H]2CC(=O)CC[C@@]21C | Active | Active |  |  | 
5 | C/C1=C/C(=O)O[C@@H]2C[C@@H](CC[C@H](C)/C=C\C=C\CC1)O[C@@](O)([C@@H]1CSC(=O)N1)C2 |  |  |  | Active | 
6 | CC1=C2C(=O)[C@H]3[C@@H](CC=C4C[C@@H](O[C@@H]5O[C@H](CO)[C@@H](O)[C@H](O)[C@H]5O)CC[C@@]43C)[C@@H]2CC[C@]12O[C@@H]1C[C@H](C)CN[C@H]1[C@H]2C | inactive | inactive |  |  | 
7 | Cc1c([C@H](C)[C@@H]2NC[C@@H](C)C[C@H]2O)ccc2c1C[C@H]1[C@H]2CCC2=CC(=O)CC[C@@]21C | Active | Active |  |  | Active
8 | CC1=C2C(=O)[C@H]3[C@@H](CC=C4CC(=O)CC[C@@]43C)[C@@H]2CC[C@]12O[C@@H]1C[C@H](C)CN[C@H]1[C@H]2C | Active | Active |  |  | 
9 | Cc1c([C@H](C)[C@@H]2NC[C@@H](C)C[C@H]2O)ccc2c1C[C@H]1[C@H]2CCC2=CC(=O)C=C[C@@]21C | Active | Active |  |  | 
10 | Cc1c([C@H](C)[C@@H]2NC[C@@H](C)C[C@H]2O)ccc2c1C[C@H]1[C@H]2CC=C2C[C@@H](O)CC[C@@]21C | Active | Active |  |  | 
11 | CC1=C2C(=O)[C@H]3[C@@H](CC[C@H]4C[C@@H](O)CC[C@@]43C)[C@@H]2CC[C@]12O[C@@H]1C[C@H](C)CN[C@H]1[C@H]2C | inactive | Active |  |  | 
